Measurements taken from US20230041563A1, “N-(1,3,4-OXADIAZOL-2-YL)ARYLCARBOXAMIDES OR SALTS THEREOF, PREPARATION METHODS, HERBICIDAL COMPOSITIONS AND USES THEREOF” (priority 2018, published 2023).

Test system: weeds
Experiment: Actual control effects and combined effects of mixtures of active ingredients (i) and (ii), stem-leaf treatment, Gowing method
Assay type: in vivo
Details: 20 days

Structure (SMILES): CCSc1c(C(F)(F)F)ccc(C(=O)Nc2nnc(C)o2)c1F [Compound 1-4]
- Control effect of (i) alone at corresponding dose (Cyperus difformis, (i) 0.3 g a.i./mu): 4.1%
- Control effect of (i) alone at corresponding dose (Cyperus difformis, (i) 1 g a.i./mu): 6.3%
- Control effect of (i) alone at corresponding dose (Cyperus difformis, (i) 1.5 g a.i./mu): 9.2%
- Control effect of (i) alone at corresponding dose (Cyperus difformis, (i) 3 g a.i./mu): 15.2%
- Control effect of (i) alone at corresponding dose (Cyperus difformis, (i) 6 g a.i./mu): 25.6%
- Control effect of (i) alone at corresponding dose (Cyperus difformis, (i) 9 g a.i./mu): 32.1%
- Control effect of (i) alone at corresponding dose (Echinochloa phyllopogon, (i) 0.6 g a.i./mu): 20.5%
- Control effect of (i) alone at corresponding dose (Echinochloa phyllopogon, (i) 0.7 g a.i./mu): 25.1%
- Control effect of (i) alone at corresponding dose (Echinochloa phyllopogon, (i) 0.75 g a.i./mu): 30.3%
- Control effect of (i) alone at corresponding dose (Echinochloa phyllopogon, (i) 1 g a.i./mu): 36.6%
- Control effect of (i) alone at corresponding dose (Echinochloa phyllopogon, (i) 1.5 g a.i./mu): 41.5%
- Control effect of (i) alone at corresponding dose (Echinochloa phyllopogon, (i) 1.6 g a.i./mu): 45.3%
- Control effect of (i) alone at corresponding dose (Echinochloa phyllopogon, (i) 3 g a.i./mu): 60.2%
- Control effect of (i) alone at corresponding dose (Leptochloa chinensis, (i) 3 g a.i./mu): 18.6%
- Control effect of (i) alone at corresponding dose (Leptochloa chinensis, (i) 15 g a.i./mu): 45.6%
- Control effect of (i) alone at corresponding dose (Monochoria vaginalis, (i) 0.8 g a.i./mu): 5.8%
- Control effect of (i) alone at corresponding dose (Monochoria vaginalis, (i) 1 g a.i./mu): 6.2%
- Control effect of (i) alone at corresponding dose (Monochoria vaginalis, (i) 1.8 g a.i./mu): 8.6%
- Control effect of (i) alone at corresponding dose (Monochoria vaginalis, (i) 2.4 g a.i./mu): 10.2%
- Control effect of (i) alone at corresponding dose (Monochoria vaginalis, (i) 3 g a.i./mu): 12.7%
- Control effect of (i) alone at corresponding dose (Monochoria vaginalis, (i) 3.5 g a.i./mu): 13.3%
- Control effect of (i) alone at corresponding dose (Monochoria vaginalis, (i) 5 g a.i./mu): 19.6%
- Control effect of (i) alone at corresponding dose (Monochoria vaginalis, (i) 6 g a.i./mu): 28.6%
- Control effect of (i) alone at corresponding dose (Monochoria vaginalis, (i) 10 g a.i./mu): 31.7%
- Control effect of (i) alone at corresponding dose (Monochoria vaginalis, (i) 15 g a.i./mu): 40.5%
- Control effect of (i) alone at corresponding dose (Sagittaria trifolia L., (i) 0.75 g a.i./mu): 16.3%
- Control effect of (i) alone at corresponding dose (Sagittaria trifolia L., (i) 3 g a.i./mu): 60.3%
